The values that follow come from patent publication US20230286973A1, “PROTEIN SECRETION INHIBITORS” (KEZAR LIFE SCIENCES, priority 2020, published 2023).

Data set [1] relates to TNFα-FL/Gaussia Luciferase. Kind of data set: Dox Induced TNFα-FL-Gluc Assay. The format is cell-based. The following applies: for IC50: 24 hr Dox induction, 293FRT/TO cells, read-out: 24 hr Dox Inducible TNFaFLGluc 293FRT/TO: Mean IC50; for 24 hr Dox Inducible TNFaFLGluc 293FRT/TO: TNF/PD1: ratio of TNFaFLGluc IC50 to PD1ssGluc IC50. In short, it runs like this: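 Compound was added with doxycycline to cells plated a day earlier, incubating at 37° C under 5% CO2. The reporter line is 293 T-REx expressing a TNFα (1-233)–Gaussia luciferase fusion under tetracycline-regulated control.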

The test system of data set [2] is IL-2-FL/Gaussia Luciferase. The experiment in a line: Dox Induced IL2-FL-Gluc Assay. The data set is classed as cell-based. The following applies: for IC50: 24 hr Dox induction, 293FRT/TO cells, read-out: 24 hr Dox Inducible IL2FLGluc 293FRT/TO: Mean IC50; for 24 hr Dox Inducible IL2FLGluc 293FRT/TO: IL2/PD1: ratio of IL2FLGluc IC50 to PD1ssGluc IC50. The gist of the method: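 Compounds in DMSO/medium with doxycycline were applied to a 293 T-REx stable line expressing an IL-2 (aa 1-153)–Gaussia luciferase fusion under tetracycline-regulated control, cells seeded one day earlier; incubation at 37 °C, 5% CO2. Structures drawn without stereochemistry were tested as stereoisomer mixtures.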

Data set [3] relates to PD1-ss+10aa/Gaussia Luciferase. Kind of data set: Dox-Induced PD1-ss-Gluc Assay. The data set is classed as cell-based. As to conditions: 24 hr Dox induction; 293FRT/TO cells; read-out: 24 hr Dox Inducible PD1ssGluc 293FRT/TO: Mean IC50. The gist of the method: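 Flp-In 293 T-REx cells stably carrying a doxycycline-inducible Gaussia luciferase fused to the PD1 signal sequence plus 10 aa were plated the day before. Compound dilutions in DMSO/media containing doxycycline were then added and incubated at 37 °C, 5% CO2. Data for undefined stereochemistry refer to stereoisomer mixtures.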

Data set [4] deals with multiple myeloma cell line U266B1. Kind of data set: U266 Cell Viability Assay. As to conditions: Homo sapiens, U-266, 48 h, U266B1 cells, Celltiter-Glo. The format is cell-based, human. In short, it runs like this: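 CellTiter-Glo luminescence was read after a 48 h compound exposure (37 °C, 5% CO2) of human U266B1 myeloma cells grown in 10% FBS-supplemented RPMI 1640. Data for structures shown without defined stereochemistry refer to stereoisomer mixtures.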

Data set [5] can be described thus: Liver Microsome Stability Assay (human). The following applies: human liver microsomes, with NADPH, 1.0 uM compound.
Method: (§1) Stability of a compound was assessed in the presence of liver microsomes from various sources—mouse, rat, monkey and human liver microsomes. 1.0 uM compound, 0.4% DMSO in 0.1 M Potassium Phosphate with 1.0 mg/mL liver microsomes, were incubated at 37° C. with or without 1 mM NADPH. The samples were quenched at 0, and 30 minutes.
For data set [6], the system named is multiple myeloma cell line NCI-H929. The experiment in a line: H929 Cell Viability Assay. The data set is classed as cell-based, human. As to conditions: Homo sapiens, NCI-H929, 48 h, NCI-H929 cells, Celltiter-Glo. In short, it runs like this: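 Luminescent CellTiter-Glo read-out of viability after a 48 h exposure (37° C, 5% CO2) of NCI-H929 myeloma cells to compound dilutions in RPMI 1640 plus 10% FBS. Data for structures drawn without stereochemistry refer to stereoisomer mixtures.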

In data set [7] the test system is HER3-ss+4aa/Gaussia Luciferase. The experiment in a line: Dox-Induced Her3-ss-Gluc Assay. The format is cell-based. The following applies: 24 hr Dox induction; 293FRT/TO cells; read-out: 24 hr Dox Inducible Her3(ss + 4)Gluc 293FRT/TO: Mean IC50. In short, it runs like this: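 Compounds were diluted in DMSO/media containing doxycycline. They were added to Flp-In 293 T-REx cells plated the previous day, then incubated at 37 °C under 5% CO2. These cells stably express, under T-REx control, Gaussia luciferase fused to the HER3 signal sequence plus 4 amino acids.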

Data set [8] is described as follows: Liver Microsome Stability Assay (monkey). The following applies: monkey liver microsomes, with NADPH, 1.0 uM compound.
Method: as §1
Data set [9] can be described thus: Liver Microsome Stability Assay (rat). The following applies: rat liver microsomes, with NADPH, 1.0 uM compound.
Method: as §1
The nature of data set [10]: Liver Microsome Stability Assay (mouse). As to conditions: mouse liver microsomes, with NADPH, 1.0 uM compound.
Method: as §1

Regarding `NC(=O)c1ccc(N2CCC[C@@H]2c2csc(NC(=O)c3cccn3Cc3ccnc(F)c3)n2)cc1` [Compound A65, (R)-N-(4-(1-(4-carbamoylphenyl)pyrrolidin-2-yl)thiazol-2-yl)-1-((2-fluoropyridin-4-yl)methyl)-1H-pyrrole-2-carboxamide], the IC50 in data set [1] came out at 65.5 nM; in data set [2] it was 7.99 nM; in data set [3], 2.11 nM; in [7], 6.49 nM. Further, the “24 hr Dox Inducible TNFaFLGluc 293FRT/TO: TNF/PD1” value in data set [1] is recorded as 31. The “24 hr Dox Inducible IL2FLGluc 293FRT/TO: IL2/PD1” value in data set [2] was found to be 3.8. The concentration giving a half-maximal response (EC50) in data set [4] was > 25 µM; in [6], 81.2 nM. Also, the “Liver Microsome Stability (Multiple Species): Human - % Remaining after 30 min w/NADPH” value in [5] came to 22.1%. In addition, the “Liver Microsome Stability (Multiple Species): Monkey - % Remaining after 30 min w/NADPH” value in data set [8] came to 0.35%. Besides, in data set [9], the “Liver Microsome Stability (Multiple Species): Rat - % Remaining after 30 min w/NADPH” value was 1.1%. Moreover, the “Liver Microsome Stability (Multiple Species): Mouse - % Remaining after 30 min w/NADPH” value in [10] is 7.68%.

On to `COCCOc1ccc(N2CCC[C@@H]2c2csc(NC(=O)c3cccn3Cc3ccnc(F)c3)n2)cc1` [Compound A127, (R)-1-((2-fluoropyridin-4-yl)methyl)-N-(4-(1-(4-(2-methoxyethoxy)phenyl)pyrrolidin-2-yl)thiazol-2-yl)-1H-pyrrole-2-carboxamide], for which the IC50 worked out at 107 nM in [1], 10.1 nM in data set [2], 5.65 nM in [3] and 10.8 nM in data set [7]. Also, the “24 hr Dox Inducible TNFaFLGluc 293FRT/TO: TNF/PD1” value in data set [1] worked out at 19. The “24 hr Dox Inducible IL2FLGluc 293FRT/TO: IL2/PD1” value in data set [2] is listed as 1.8. For the same compound, the 50% effective concentration (EC50) in data set [4] was > 25 µM; in [6], 278 nM. Moreover, the “Liver Microsome Stability (Multiple Species): Human - % Remaining after 30 min w/NADPH” value in data set [5] is 30.6%. Moreover, the “Liver Microsome Stability (Multiple Species): Monkey - % Remaining after 30 min w/NADPH” value in data set [8] worked out at 24.4%. In addition, the “Liver Microsome Stability (Multiple Species): Rat - % Remaining after 30 min w/NADPH” value in data set [9] is 0.26%. In addition, the “Liver Microsome Stability (Multiple Species): Mouse - % Remaining after 30 min w/NADPH” value in [10] is listed as 3.95%.

As for `O=C(Nc1nc(/C=C/c2ncoc2C2CCCCC2)cs1)c1cccn1Cc1ccnc(F)c1` [Compound B53, (E)-N-(4-(2-(5-cyclohexyloxazol-4-yl)vinyl)thiazol-2-yl)-1-((2-fluoropyridin-4-yl)methyl)-1H-pyrrole-2-carboxamide], the IC50 in data set [1] is 3840 nM; in data set [2] it was 1670 nM; in data set [3] it was 38.1 nM; in [7], 878 nM. Moreover, the “24 hr Dox Inducible TNFaFLGluc 293FRT/TO: TNF/PD1” value in [1] stood at 101. For the same compound, in data set [2], the “24 hr Dox Inducible IL2FLGluc 293FRT/TO: IL2/PD1” value amounted to 44. Also, the EC50 in [4] was > 25 µM; in data set [6], 11200 nM. The “Liver Microsome Stability (Multiple Species): Human - % Remaining after 30 min w/NADPH” value in data set [5] is 5.98%. Besides, in data set [8], the “Liver Microsome Stability (Multiple Species): Monkey - % Remaining after 30 min w/NADPH” value was found to be 1.39%. Moreover, the “Liver Microsome Stability (Multiple Species): Rat - % Remaining after 30 min w/NADPH” value in [9] came to 2.11%. In addition, the “Liver Microsome Stability (Multiple Species): Mouse - % Remaining after 30 min w/NADPH” value in data set [10] amounted to 14.5%.

Turning to `O=C(Nc1nc(/C=C/c2c[nH]cn2)cs1)c1cccn1Cc1ccncc1` [Compound B42, (E)-N-(4-(2-(1H-imidazol-4-yl)vinyl)thiazol-2-yl)-1-(pyridin-4-ylmethyl)-1H-pyrrole-2-carboxamide], the IC50 was > 25000 nM in data set [1], > 25000 nM in data set [2], 6680 nM in data set [3] and > 25000 nM in data set [7]. The “24 hr Dox Inducible TNFaFLGluc 293FRT/TO: TNF/PD1” value in data set [1] is recorded as >3.74. Besides, the “24 hr Dox Inducible IL2FLGluc 293FRT/TO: IL2/PD1” value in data set [2] was >3.7. Further, the EC50 in data set [4] is > 25 µM; in [6], > 25000 nM. Further, the “Liver Microsome Stability (Multiple Species): Human - % Remaining after 30 min w/NADPH” value in data set [5] is listed as 6.13%. In addition, the “Liver Microsome Stability (Multiple Species): Monkey - % Remaining after 30 min w/NADPH” value in [8] came out at 11.3%. The “Liver Microsome Stability (Multiple Species): Rat - % Remaining after 30 min w/NADPH” value in [9] worked out at 8.69%. Also, in [10], the “Liver Microsome Stability (Multiple Species): Mouse - % Remaining after 30 min w/NADPH” value is 26.5%.
